Several values for one entry are separate records, joined by “and”; a condition that tells them apart may be missing. Equal values may be shown once.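 Assay format: 96-well plates, 48-hour exposure. At the GI50, growth is halved. Definition used: TGI = concentration required for complete inhibition of growth.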
Tests used:
Assay in all cases: NCI-60 cell line screen, 48 h
MDA-MB-231 breast = tested on: MDA-MB-231 breast
SK-MEL-5 melanoma = tested on: SK-MEL-5 melanoma
OVCAR-3 ovarian = tested on: OVCAR-3 ovarian
OVCAR-8 ovarian = tested on: OVCAR-8 ovarian
CAKI-1 renal = tested on: CAKI-1 renal
DU-145 prostate = tested on: DU-145 prostate
KM12 colon = tested on: KM12 colon
SNB-75 CNS = tested on: SNB-75 CNS

Compound	TGI (MDA-MB-231 breast)	TGI (SK-MEL-5 melanoma)	TGI (OVCAR-3 ovarian)	TGI (OVCAR-8 ovarian)	TGI (CAKI-1 renal)	TGI (DU-145 prostate)	TGI (KM12 colon)	TGI (SNB-75 CNS)	GI50 (MDA-MB-231 breast)	GI50 (SK-MEL-5 melanoma)	GI50 (OVCAR-3 ovarian)	GI50 (OVCAR-8 ovarian)	GI50 (CAKI-1 renal)	GI50 (DU-145 prostate)	GI50 (KM12 colon)	GI50 (SNB-75 CNS)
CCCOc1ccc(-c2nc(-c3ccc(N=Cc4ccc(N(CCOS(C)(=O)=O)CCOS(C)(=O)=O)cc4C)cc3)cs2)cc1	86 µM	> 71.3 µM	55.4 µM	> 100 µM	12.8 µM	18.1 µM	42 µM	18 µM								
O=C(N/N=C/c1ccccc1O)C(O)(c1ccccc1)c1ccccc1	> 100 µM	> 100 µM	> 100 µM	> 100 µM	> 100 µM	> 100 µM	> 100 µM	> 100 µM	15 µM	> 100 µM	2.66 µM	13.1 µM	2.36 µM	> 100 µM	9.93 µM	> 100 µM
CN1CCC(CNc2ccc3ncc(-c4cccc(OC(F)(F)F)c4)n3n2)CC1	3.65 µM and 2.77 µM	2.82 µM and 2.85 µM	3.79 µM and > 10 µM	8.2 µM and > 10 µM	3.57 µM and > 10 µM	13.4 µM and > 10 µM	1.78 µM and > 10 µM	4.46 µM and 8.12 µM	1.62 µM and 1.26 µM	1.47 µM and 1.51 µM	1.7 µM and 2.15 µM	2.46 µM and 2.89 µM	1.47 µM and 1.83 µM	3.35 µM and 3.6 µM	0.331 µM and 0.427 µM	1.39 µM and 1.09 µM
COc1ccc(-c2nsc3c2NC(=O)CC3c2ccc(F)cc2)cc1 (stereo not given)	> 100 µM	> 100 µM	> 100 µM	> 100 µM	18.4 µM	> 100 µM	> 100 µM	15.7 µM	6.68 µM	3.22 µM	3.79 µM	5.66 µM	2.28 µM	5.31 µM	3.13 µM	2.35 µM
CCN1C(=O)N(CC)C2C1NN=c1s/c(=C\c3ccccc3F)c(=O)n12 (stereo not given)	> 84.6 µM	0.203 µM	0.0789 µM		> 100 µM	> 100 µM	> 48.9 µM	0.0711 µM	0.0457 µM	0.0289 µM	0.0282 µM	0.0357 µM	0.0323 µM	0.0398 µM	0.0278 µM	0.0133 µM
COc1c2c3ccccc3nc-2n(C)c2ccccc12	40.4 µM	33.1 µM	> 100 µM	> 100 µM	> 100 µM	45.5 µM	> 100 µM	35.4 µM	7.03 µM	12.8 µM	21 µM	25.7 µM	19.2 µM	9.48 µM	8.63 µM	14.1 µM
O=C1/C(=C\c2ccc(F)cc2)CN(C(=O)c2ccc([N+](=O)[O-])cc2)C/C1=C\c1ccc(F)cc1	7.92 µM	3.84 µM	7.53 µM	> 100 µM	> 100 µM	> 51.8 µM	2.19 µM	> 93 µM	2.38 µM	1.69 µM	2.69 µM	2.97 µM	6.64 µM	4.31 µM	0.568 µM	7.66 µM
NCCCCCCCCn1c2c(c3ccccc3c1=O)C(=O)c1ccccc1-2	5.73 µM	3.94 µM	11.6 µM	> 100 µM	9.03 µM	14 µM	4.59 µM	26.8 µM	2.12 µM	1.91 µM	3.5 µM	3.98 µM	3.25 µM	3.4 µM	2.12 µM	7.65 µM
O=Nc1ccc(O)c2ccccc12	20.4 µM	3.04 µM	0.643 µM	5 µM	4.03 µM	3.22 µM	6.02 µM	3.02 µM	2.93 µM	1.65 µM	0.25 µM	1.57 µM	1.63 µM	1.77 µM	2.17 µM	1.44 µM
Cc1ncc(C(=O)Nc2ccc(CN3CCN(C)CC3)c(C(F)(F)F)c2)cc1C#Cc1cnc(N)c2cnccc12	0.165 µM	0.604 µM	5.98 µM	16.3 µM	1.64 µM	6.91 µM	11.2 µM	0.616 µM	0.0289 µM	0.0805 µM	0.181 µM	0.112 µM	0.167 µM	0.0636 µM		0.0899 µM
CO/[N+]([O-])=C\C(=O)N/C=C/C(=O)O	> 100 µM	> 100 µM	> 100 µM	> 100 µM	> 100 µM	> 100 µM	> 100 µM	> 100 µM								
O=C(CCCCCCCn1cc(-c2cccnc2)nn1)Nc1ccccc1-c1ccccc1	> 100 µM	15.1 µM	> 100 µM	27.9 µM	> 58.4 µM	> 100 µM	24.2 µM	> 100 µM	21.3 µM	2.25 µM	5.72 µM	0.0437 µM	1.29 µM	0.569 µM	0.607 µM	29.8 µM
Cc1cccc(-c2nn3c(c2-c2ccnc4ccc(C(N)=O)cc24)CCC3)n1	> 100 µM	> 100 µM	> 100 µM	> 100 µM	> 100 µM	> 100 µM	> 100 µM	> 100 µM	> 100 µM	> 100 µM	> 100 µM	> 100 µM	> 100 µM	> 100 µM	> 100 µM	> 100 µM

From PubChem BioAssay (NCI)
